Test results taken from patent publication US11771662B2, “Analgesic formulation for control of pain in dogs” (Kansas State University Research Foundation, priority 2017, dated 2023).
Where “and” joins values, the source holds several entries; their conditions need not be identical. Identical values can stand only once.

Key:
[1] = Plasma methadone, fluconazole, naltrexone and naltrexone metabolite concentrations (Example IV)
Excerpt: Anesthesia was monitored by licensed veterinary technicians.

[2] = Plasma methadone concentrations by liquid chromatography/triple quadrupole mass spectrometry (Example I); conditions: for concentration at 0.333 h / concentration at 0.667 h / concentration at 1 h / concentration at 2 h / concentration at 4 h / concentration at 0 h / concentration at 6 h / concentration at 8 h / concentration at 12 h / concentration at 24 h: dog, in vivo
[3] = 1 mg/kg, Plasma methadone concentration, individual dogs, methadone alone 1 mg/kg PO, Dog 1-6
[4] = Mean plasma methadone concentration, methadone 1 mg/kg PO 24 h after starting fluconazole 2.5 mg/kg PO q 12 h
[5] = Mean plasma methadone concentration, methadone 1 mg/kg PO 24 h after starting fluconazole 5 mg/kg PO q 12 h
[6] = Mean plasma methadone concentration, methadone 1 mg/kg PO 24 h after starting fluconazole 5 mg/kg PO q 24 h

With `CCC(=O)C(CC(C)N(C)C)(c1ccccc1)c1ccccc1` (racemic) [methadone] the “Plasma methadone concentrations median (range)” value ([1]; injectable methadone 0.5 mg/kg SC q 4 h, Day 1 4:00 PM) was 14.4 (5.4-32.9)^1, the “Plasma methadone concentrations median (range)” value ([1]; injectable methadone 0.5 mg/kg SC q 4 h, Day 1 8:00 PM) was 22.4 (14.8-47.7) and the “Plasma methadone concentrations median (range)” value ([1]; injectable methadone 0.5 mg/kg SC q 4 h, Day 2 5:00 PM) was 2.0 (0-10)^1,2. For the same molecule, the “Plasma methadone concentrations median (range)” value ([1]; oral methadone/fluconazole/naltrexone formulation 0.5 mg/kg (methadone) PO q 12 h, Day 1 4:00 PM) was 20.6 (2.6-30.3)^2, the “Plasma methadone concentrations median (range)” value ([1]; oral methadone/fluconazole/naltrexone formulation 0.5 mg/kg (methadone) PO q 12 h, Day 1 8:00 PM) was 17.6 (2.0-29.8)^1 and the “Plasma methadone concentrations median (range)” value ([1]; oral methadone/fluconazole/naltrexone formulation 0.5 mg/kg (methadone) PO q 12 h, Day 2 5:00 PM) was 14.1 (3.6-41.7)^2,3. The “Plasma methadone concentrations median (range)” value ([1]; oral methadone/fluconazole/naltrexone formulation 1 mg/kg (methadone) PO q 12 h, Day 1 4:00 PM) was 36.2 (3.2-67.7)^1,2, the “Plasma methadone concentrations median (range)” value ([1]; oral methadone/fluconazole/naltrexone formulation 1 mg/kg (methadone) PO q 12 h, Day 1 8:00 PM) was 27.7 (2.1-54.8)^1 and the “Plasma methadone concentrations median (range)” value ([1]; oral methadone/fluconazole/naltrexone formulation 1 mg/kg (methadone) PO q 12 h, Day 2 5:00 PM) was 46.7 (1.4-98.5)^1,3. It also gave a concentration at 0.333 h ([2]; 1 mg/kg, Mean plasma methadone concentration, methadone alone 1 mg/kg PO, 0.333 hr, 6 dogs) of 0.8 ng/mL, a concentration at 0.667 h ([2]; 1 mg/kg, Mean plasma methadone concentration, methadone alone 1 mg/kg PO, 0.667 hr, 6 dogs) of 1.3 ng/mL and a concentration at 1 h ([2]; 1 mg/kg, Mean plasma methadone concentration, methadone alone 1 mg/kg PO, 1 hr, 6 dogs) of 1.2 ng/mL. It also gave a concentration at 2 h ([2]; 1 mg/kg, Mean plasma methadone concentration, methadone alone 1 mg/kg PO, 2 hr, 6 dogs) of 0.7 ng/mL, a concentration at 4 h ([2]; 1 mg/kg, Mean plasma methadone concentration, methadone alone 1 mg/kg PO, 6 dogs) of 0.4 ng/mL and a concentration at 0 h ([2]; 1 mg/kg, Plasma methadone concentration, individual dogs, methadone alone 1 mg/kg PO, 0 hr, Dog 1-6) of less than 0.5 ng/mL. For the same molecule, the concentration at 1 h ([2]; 1 mg/kg, Plasma methadone concentration, individual dogs, methadone alone 1 mg/kg PO, 1 hr, Dog 1-6) was 1 ng/mL, the concentration at 4 h [2, 3] was less than 0.5 ng/mL and the concentration at 6 h [2, 3] was less than 0.5 ng/mL. For the same molecule, the concentration at 8 h [2, 3] was less than 0.5 ng/mL, the concentration at 12 h [2, 3] was less than 0.5 ng/mL and the concentration at 24 h [2, 3] was less than 0.5 ng/mL. It also gave a concentration at 0 h ([2]; Mean plasma methadone concentration, methadone 1 mg/kg PO 24 h after starting fluconazole 2.5 mg/kg PO q 12 h, 0 hr) of 0 ng/mL, a concentration at 0.333 h ([2]; Mean plasma methadone concentration, methadone 1 mg/kg PO 24 h after starting fluconazole 2.5 mg/kg PO q 12 h, 0.333 hr) of 0.8 ng/mL and a concentration at 0.667 h ([2]; Mean plasma methadone concentration, methadone 1 mg/kg PO 24 h after starting fluconazole 2.5 mg/kg PO q 12 h, 0.667 hr) of 5.2 ng/mL. The concentration at 1 h ([2]; Mean plasma methadone concentration, methadone 1 mg/kg PO 24 h after starting fluconazole 2.5 mg/kg PO q 12 h, 1 hr) was 16 ng/mL, the concentration at 2 h ([2]; Mean plasma methadone concentration, methadone 1 mg/kg PO 24 h after starting fluconazole 2.5 mg/kg PO q 12 h, 2 hr) was 28.4 ng/mL and the concentration at 4 h [2, 4] was 23.3 ng/mL. For the same molecule, the concentration at 6 h [2, 4] was 19.2 ng/mL, the concentration at 8 h [2, 4] was 15.9 ng/mL and the concentration at 12 h [2, 4] was 11.6 ng/mL. It also gave a concentration at 24 h [2, 4] of 5.6 ng/mL, a concentration at 0 h ([2]; Mean plasma methadone concentration, methadone 1 mg/kg PO 24 h after starting fluconazole 5 mg/kg PO q 12 h, 0 hr) of 0 ng/mL and a concentration at 0.333 h ([2]; Mean plasma methadone concentration, methadone 1 mg/kg PO 24 h after starting fluconazole 5 mg/kg PO q 12 h, 0.333 hr) of 14 ng/mL. It also gave a concentration at 0.667 h ([2]; Mean plasma methadone concentration, methadone 1 mg/kg PO 24 h after starting fluconazole 5 mg/kg PO q 12 h, 0.667 hr) of 10.3 ng/mL, a concentration at 1 h ([2]; Mean plasma methadone concentration, methadone 1 mg/kg PO 24 h after starting fluconazole 5 mg/kg PO q 12 h, 1 hr) of 24.3 ng/mL and a concentration at 2 h ([2]; Mean plasma methadone concentration, methadone 1 mg/kg PO 24 h after starting fluconazole 5 mg/kg PO q 12 h, 2 hr) of 43.6 ng/mL. The concentration at 4 h [2, 5] was 42.5 ng/mL, the concentration at 6 h [2, 5] was 33.9 ng/mL and the concentration at 8 h [2, 5] was 27.6 ng/mL. The concentration at 12 h [2, 5] was 20.2 ng/mL, the concentration at 24 h [2, 5] was 8.3 ng/mL and the concentration at 0 h ([2]; Mean plasma methadone concentration, methadone 1 mg/kg PO 24 h after starting fluconazole 5 mg/kg PO q 24 h, 0 hr) was 0 ng/mL. The concentration at 0.333 h ([2]; Mean plasma methadone concentration, methadone 1 mg/kg PO 24 h after starting fluconazole 5 mg/kg PO q 24 h, 0.333 hr) was 5.8 ng/mL, the concentration at 0.667 h ([2]; Mean plasma methadone concentration, methadone 1 mg/kg PO 24 h after starting fluconazole 5 mg/kg PO q 24 h, 0.667 hr) was 22.4 ng/mL and the concentration at 1 h ([2]; Mean plasma methadone concentration, methadone 1 mg/kg PO 24 h after starting fluconazole 5 mg/kg PO q 24 h, 1 hr) was 33.7 ng/mL. The concentration at 2 h ([2]; Mean plasma methadone concentration, methadone 1 mg/kg PO 24 h after starting fluconazole 5 mg/kg PO q 24 h, 2 hr) was 39.9 ng/mL, the concentration at 4 h [2, 6] was 31.4 ng/mL and the concentration at 6 h [2, 6] was 24 ng/mL. For the same molecule, the concentration at 8 h [2, 6] was 18.4 ng/mL, the concentration at 12 h [2, 6] was 15.3 ng/mL and the concentration at 24 h [2, 6] was 5.5 ng/mL. For the same molecule, the “Plasma methadone concentration (not exceeded in any of 6 dogs)” value ([2]; methadone alone 1 mg/kg PO) was no more than 2 ng/mL, the “Plasma methadone concentration, individual dogs” value ([2]; methadone alone 1 mg/kg PO, 0 hr, Dog 1-6) was less than 0.5 ng/mL and the “Plasma methadone concentration, individual dogs” value ([2]; methadone alone 1 mg/kg PO, 0.333 hr, Dog 1-6) was <0.5 ng/mL (3×) and 1.3 ng/mL (2×) and 1.9 ng/mL. The “Plasma methadone concentration, individual dogs” value ([2]; methadone alone 1 mg/kg PO, 0.667 hr, Dog 1-6) was 1.9 ng/mL and 1.2 ng/mL and 0.7 ng/mL and 1.3 ng/mL and 1.5 ng/mL and 1.0 ng/mL, the “Plasma methadone concentration, individual dogs” value ([2]; methadone alone 1 mg/kg PO, 1 hr, Dog 1-6) was 1.2 ng/mL (2×) and 1.5 ng/mL and 1.4 ng/mL and 1.1 ng/mL and the “Plasma methadone concentration, individual dogs” value ([2]; methadone alone 1 mg/kg PO, 2 hr, Dog 1-6) was <0.5 ng/mL (2×) and 0.8 ng/mL and 1.3 ng/mL and 0.6 ng/mL and 0.9 ng/mL.
